Assay results: the NIST ThermoML archive (doi:10.1016/j.tca.2014.07.025)

Legend:
[1] = 100 kPa, Liquid; for speed of sound: Frequency=3 MHz, Sing-around technique in a fixed-path interferometer; for mass density: Vibrating tube method
[2] = mn = molality of the nth substance listed, in mol/kg; settings: 100 kPa, Liquid; for speed of sound: Frequency=3 MHz, Sing-around technique in a fixed-path interferometer; for mass density: Vibrating tube method

O [water]
[1]
Settings	mass density [kg/m3]	speed of sound [m/s]
305.15 K	995.09	1513.5
310.15 K	993.403	1523.5
315.15 K	991.51	1532.2

CC(C)C[C@H](NC(=O)CN)C(=O)O [glycyl-L-leucine] + O
[2]
Settings	mass density, 305.15 K [kg/m3]	mass density, 310.15 K [kg/m3]	mass density, 315.15 K [kg/m3]	speed of sound, 305.15 K [m/s]	speed of sound, 310.15 K [m/s]	speed of sound, 315.15 K [m/s]
m1 = 0.00196	995.189	993.501	991.607	1514	1523.9	1532.4
m1 = 0.00595	995.39	993.701	991.806	1514.8	1524.6	1533
m1 = 0.00811	995.498	993.809	991.913	1515	1524.9	1533.1
m1 = 0.01008	995.597	993.908	992.01	1515.2	1525.2	1533.3
m1 = 0.02014	996.102	994.41	992.508	1516.4	1526.2	1534.5
m1 = 0.05085	997.635	995.935	994.019	1521.5	1531.4	1539.2
m1 = 0.1002	1000.07	998.358	996.42	1528.8	1538.2	1545.9
m1 = 0.1991	1004.86	1003.12	1001.14	1540.2	1548.9	1555.8
m1 = 0.299	1009.55	1007.79	1005.77	1552	1560	1566.6

CC1(C)S[C@@H]2[C@H](NC(=O)[C@H](N)c3ccc(O)cc3)C(=O)N2[C@H]1C(=O)O [amoxicillin] + O
[2]
Settings	mass density, 305.15 K [kg/m3]	mass density, 310.15 K [kg/m3]	mass density, 315.15 K [kg/m3]	speed of sound, 305.15 K [m/s]	speed of sound, 310.15 K [m/s]	speed of sound, 315.15 K [m/s]
m1 = 0.0005	995.743	994.045	992.153	1514.7	1524.6	1532.9
m1 = 0.002	995.924	994.23	992.334	1515	1524.8	1533.2
m1 = 0.0035	996.115	994.412	992.522	1514.4	1524.3	1532.5
